In patent US9428504B2, “7-hydroxy-spiropipiperidine indolinyl antagonists of P2Y1 receptor” (BRISTOL-MYERS SQUIBB COMPANY, priority 2012, dated 2016):
Counter-ions that a name gives are not always drawn.

Legend:
[1] = tested on: human platelet rich plasma (PRP); test: ADP induced platelet aggregation assay; conditions: Homo sapiens, Platelet, read-out: PA IC50 (μM) @ 10 μM ADP, platelet aggregation induced by 10 μM ADP, human PRP
[2] = molecular target: cloned human P2Y1 receptors (Homo sapiens (Human), UniProt P47900); test: Binding Assay B: Scintillation Proximity Assay (SPA) for P2Y1 binding; conditions: SPA, [33P] 2MeS-ADP displacement; read-out: P2Y1 Ki (nM) using binding assay B
cloned human P2Y1 receptors, sequence (P47900 whole entry): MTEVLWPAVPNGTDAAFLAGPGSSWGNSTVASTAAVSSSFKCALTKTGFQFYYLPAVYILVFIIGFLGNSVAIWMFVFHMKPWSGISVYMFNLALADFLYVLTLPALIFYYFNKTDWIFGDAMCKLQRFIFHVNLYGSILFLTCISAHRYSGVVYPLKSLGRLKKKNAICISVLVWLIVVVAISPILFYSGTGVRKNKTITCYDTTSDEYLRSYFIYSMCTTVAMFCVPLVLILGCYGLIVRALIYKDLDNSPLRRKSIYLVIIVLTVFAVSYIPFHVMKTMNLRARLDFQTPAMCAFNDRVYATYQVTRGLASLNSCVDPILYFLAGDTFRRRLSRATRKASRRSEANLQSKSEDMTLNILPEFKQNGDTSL
Method in brief: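 Membranes with ~15 fmol receptor (1.7 μg total protein) incubated with 0.3 nM [^33P]-labelled radioligand for 1 h at room temperature to completion. After centrifugation and removal of aqueous phase, bound radioactivity read by scintillation proximity; inhibition of radioligand binding measured.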

Compound	IC50 [1]	Ki [2]
CC(C)CN1CCCC1c1ccc(NC(=O)Nc2ccccc2N2CC3(CCN(CC(C)(C)C)CC3)c3c(Cl)ccc(O)c32)cc1 (stereo not shown) [Example 57, 1-(2-(4-Chloro-7-hydroxy-1′-neopentylspiro[indoline-3,4′-piperidine]-1-yl)phenyl)-3-(4-(1-isobutylpyrrolidin-2-yl)phenyl)urea]	0.2 µM	10.4 nM
CC(C)(C)CN1CCC2(CC1)CN(c1ccccc1NC(=O)Nc1ccc(C3CCCN3CC(C)(C)C)cc1)c1c(O)ccc(Cl)c12 (stereo not shown) [Example 58, 1-(2-(4-Chloro-7-hydroxy-1′-neopentylspiro[indoline-3,4′-piperidine]-1-yl)phenyl)-3-(4-(1-neopentylpyrrolidin-2-yl)phenyl)urea]	0.2 µM	12.4 nM
CC(C)(C)CN1CCC2(CC1)CN(c1ccccc1NC(=O)Nc1ccc(OC(F)(F)F)cc1)c1c(O)ccc(Cl)c12 [Example 59, 1-(2-(4-Chloro-7-hydroxy-1′-neopentylspiro[indoline-3,4′-piperidine]-1-yl)phenyl)-3-(4-(trifluoromethoxy)phenyl)urea]	0.4 µM	7.2 nM
CC(C)(C)CN1CCC2(CC1)CN(c1ccccc1NC(=O)Nc1ccc(C(F)(F)F)cc1)c1c(O)ccc(Cl)c12 [Example 60, 1-(2-(4-Chloro-7-hydroxy-1′-neopentylspiro[indoline-3,4′-piperidin]-1-yl)phenyl)-3-(4-(trifluoromethyl)phenyl)urea]	0.4 µM	6.4 nM
CC(C)(C)CN1CCC2(CC1)CN(c1ccccc1NC(=O)Nc1csc(Cl)n1)c1c(O)ccc(Cl)c12 [Example 61, 1-(2-(4-Chloro-7-hydroxy-1′-neopentylspiro[indoline-3,4′-piperidin]-1-yl)phenyl)-3-(2-chlorothiazol-4-yl)urea]	0.2 µM	5.8 nM
CC(C)c1nc(NC(=O)Nc2ccccc2N2CC3(CCN(CC(C)(C)C)CC3)c3c(Cl)ccc(O)c32)cs1 [Example 62, 1-(2-(4-Chloro-7-hydroxy-1′-neopentylspiro[indoline-3,4′-piperidine]-1-yl)phenyl)-3-(2-isopropylthiazol-4-yl)urea]	0.8 µM	13 nM
CC(C)(C)CN1CCC2(CC1)CN(c1ccccc1NC(=O)Nc1csc(C(F)(F)F)n1)c1c(O)ccc(Cl)c12 [Example 63, 1-(2-(4-Chloro-7-hydroxy-1′-neopentylspiro[indoline-3,4′-piperidine]-1-yl)phenyl)-3-(2-(trifluoromethyl)thiazol-4-yl)urea]	0.4 µM	4.9 nM
CC(C)CN1CCC2(CC1)CN(c1ccccc1NC(=O)Nc1ccc(C(F)(F)F)cc1)c1c(O)ccc(Cl)c12 [Example 64, 1-(2-(4-Chloro-7-hydroxy-1′-isobutylspiro[indoline-3,4′-piperidine]-1-yl)phenyl)-3-(4-(trifluoromethyl)phenyl)urea]	1 µM	6.5 nM
CC(C)CN1CCC2(CC1)CN(c1ccccc1NC(=O)Nc1nc3ccc(Cl)cc3s1)c1c(O)ccc(Cl)c12 [Example 65, 1-(2-(4-Chloro-7-hydroxy-1′-isobutylspiro[indoline-3,4′-piperidine]-1-yl)phenyl)-3-(6-chlorobenzo[d]thiazol-2-yl)urea]	0.4 µM	7.8 nM
CC(C)(C)CN1CCC2(CC1)CN(c1ncccc1NC(=O)Nc1nc3ccc(F)cc3s1)c1c(O)ccc(Cl)c12 [Example 66, 1-(2-(4-Chloro-7-hydroxy-1′-neopentylspiro[indoline-3,4′-piperidine]-1-yl)pyridin-3-yl)-3-(6-fluorobenzo[d]thiazol-2-yl)urea]	1.2 µM	25.8 nM
CC(C)(C)CN1CCC2(CC1)CN(c1cc(F)ccc1NC(=O)Nc1nc3ccc(F)cc3s1)c1c(O)ccc(Cl)c12 [Example 67, 1-(2-(4-Chloro-7-hydroxy-1′-neoopentylspiro[indoline-3,4′-piperidine]-1-yl)-4-fluorophenyl)-3-(6-fluorobenzo[d]thiazol-2-yl)urea]	0.3 µM	22.2 nM
CC(C)(C)CN1CCC2(CC1)CN(c1ccc(C#N)cc1NC(=O)Nc1ccc(OC(F)(F)F)cc1)c1c(O)ccc(Cl)c12 [Example 69, 1-(2-(4-Chloro-7-hydroxy-1′-neopentylspiro[indoline-3,4′-piperidine]-1-yl)-5-cyanophenyl)-3-(4-(trifluoromethoxy)phenyl)urea]	0.8 µM	21.4 nM
CC(C)(C)CN1CCC2(CC1)CN(c1ccc(C#N)cc1NC(=O)Nc1nc3ccc(F)cc3s1)c1c(O)ccc(Cl)c12 [Example 70, 1-(2-(4-Chloro-7-hydroxy-1′-neopentylspiro[indoline-3,4′-piperidine]-1-yl)-5-cyanophenyl)-3-(6-fluorobenzo[d]thiazol-2-yl)urea]	1 µM	29.4 nM
CC(C)(C)CN1CCC2(CC1)CN(c1ccccc1NC(=O)Nc1nc3c(s1)CN(CC(F)(F)F)CC3)c1c(O)ccc(Cl)c12 [Example 71, 1-(2-(4-Chloro-7-hydroxy-1′-neopentylspiro[indoline-3,4′-piperidine]-1-yl)phenyl)-3-(5-(2,2,2-trifluoroethyl)-4,5,6,7-tetrahydrothiazolo[5,4-c]pyridin-2-yl)urea]	0.3 µM	11.1 nM
CC(C)(C)CN1CCC2(CC1)CN(c1ccccc1NC(=O)Nc1nc3c(s1)CN(C(=O)C(F)(F)F)CC3)c1c(O)ccc(Cl)c12 [Example 72, 1-(2-(4-Chloro-7-hydroxy-1′-neopentylspiro[indoline-3,4′-piperidine]-1-yl)phenyl)-3-(5-(2,2,2-trifluoroacetyl)-4,5,6,7-tetrahydrothiazolo[5.4-c]pyridin-2-yl)urea]	0.2 µM	22.4 nM
CC(C)C(=O)N1CCc2nc(NC(=O)Nc3ccccc3N3CC4(CCN(CC(C)(C)C)CC4)c4c(Cl)ccc(O)c43)sc2C1 [Example 73, 1-(2-(4-Chloro-7-hydroxy-1′-neopentylspiro[indoline-3,4′-piperidine]-1-yl)phenyl)-3-(5-isobutyryl-4,5,6,7-tetrahydrothiazolo [5,4-c]pyriidn-2-yl)urea]	0.5 µM	17.9 nM
CC(C)CN1CCc2nc(NC(=O)Nc3ccccc3N3CC4(CCN(CC(C)(C)C)CC4)c4c(Cl)ccc(O)c43)sc2C1 [Example 74, 1-(2-(4-Chloro-7-hydroxy-1′-neopentylspiro[indoline-3,4′-piperidine]-1-yl)phenyl)-3-(5-isobutyl-4,5,6,7-tetrahydrothiazolo[5,4-c]pyridin-2-yl)urea]	0.2 µM	10.3 nM
COC(=O)c1ccc(O)c2c1C1(CCN(CC(C)(C)C)CC1)CN2c1ccccc1NC(=O)Nc1nc2ccc(F)cc2s1 [Example 77, Methyl 1-(2-(3-(6-fluorobenzo[d]thiazol-2-yl)ureido)phenyl)-7-hydroxy-1′-neopentylspiro[indoline-3,4′-piperidine]-4-carboxylate]	0.3 µM	8.7 nM
COC(=O)c1ccc(O)c2c1C1(CCN(CC(C)(C)C)CC1)CN2c1ccccc1NC(=O)Nc1ccc(F)cc1F [Example 78, Methyl 1-(2-(3-(2,4-difluorophenyl)ureido)phenyl)-7-hydroxy-1′-neopentylspiro[indoline-3,4′-piperidine]-4-carboxylate]	0.7 µM	7.9 nM
COC(=O)c1ccc(O)c2c1C1(CCN(CC(C)(C)C)CC1)CN2c1ccccc1NC(=O)Nc1ccc(OC(F)(F)F)cc1 [Example 79, Methyl 7-hydroxy-1′-neopentyl-1-(2-(3-(4-(trifluoromethoxy)phenyl)ureido)phenyl)-spiro[indoline-3,4′-piperidine]-4-carboxylate]	0.7 µM	9 nM
CC(C)CN1CCC2(CC1)CN(c1ccccc1NC(=O)Nc1nc3ccc(Cl)cc3s1)c1c(O)ccc(C#N)c12 [Example 80, 1-(6-Chlorobenzo[d]thiazol-2-yl)-3-(2-(4-cyano-7-hydroxy-1′-isobutylspiro[indoline-3,4′-piperidine]-1-yl)phenyl)urea]	0.9 µM	14.4 nM
CC(C)(C)CN1CCC2(CC1)CN(c1ccccc1NC(=O)Nc1nc3ccc(F)cc3s1)c1c(O)ccc(C#N)c12 [Example 81, 1-(2-(4-Cyano-7-hydroxy-1′-neopentylspiro[indoline-3,4′-piperidine]-l-yl)phenyl)-3-(6-fluorobenzo[d]thiazol-2-yl) urea, trifluoroacetic acid salt]	0.6 µM	5 nM
CC(C)(C)CN1CCC2(CC1)CN(c1ccccc1NC(=O)Nc1ccc(C(C)(C)C)cc1)c1c(O)ccc(C#N)c12 [Example 82, l-(4-tert-Butylphenyl)-3-(2-(4-cyano-7-hydroxy-1′-neopentylspiro[indoline-3,4′-piperidine]-l-yl)phenyl)urea, trifluoroacetic acid salt]	1 µM	24.8 nM
CC(C)(C)CN1CCC2(CC1)CN(c1ccccc1NC(=O)Nc1nc3ccc(Cl)cc3s1)c1c(O)ccc(C#N)c12 [Example 83, l-(6-Chlorobenzo[d]thiazol-2-yl)-3-(2-(4-cyano-7-hydroxy-1′-neopentylspiro[indoline-3,4′-piperidine]-1-yl)phenyl) urea, trifluoroacetic acid salt]	0.2 µM	5.7 nM
Cc1ccc2nc(NC(=O)Nc3ccccc3N3CC4(CCN(CC(C)(C)C)CC4)c4c(C#N)ccc(O)c43)sc2c1 [Example 84, 1-(2-(4-Cyano-7-hydroxy-1′-neopentylspiro[indoline-3,4′-piperidine]-l-yl)phenyl)-3-(6-methylbenzo[d]thiazol-2-yl) urea, trifluoroacetic acid salt]	0.5 µM	11.8 nM
CC(C)(C)CN1CCC2(CC1)CN(c1ccccc1NC(=O)Nc1csc(Cl)n1)c1c(O)ccc(C#N)c12 [Example 85, l-(2-Chlorothiazol-4-yl)-3-(2-(4-cyano-7-hydroxy-1′-neopentylspiro[indoline-3,4′-piperidine]-1-yl)phenyl)urea]	0.4 µM	3.7 nM
